Where two headings read alike, the source gives them in different places.
Key:
[1] = test system: LLC-MK2 cells; test: Cytotoxicity MTT assay (0.1–1000 µM), CC50; type: cell-based, Macaca mulatta
[2] = test system: Vero cells; test: Cytotoxicity screening at 10 µM (MTT); type: cell-based, Cercopithecus aethiops; conditions: 48 h
[3] = test system: LLC-MK2 cells; test: Cytotoxicity screening at 10 µM (MTT); type: cell-based, Macaca mulatta; conditions: 48 h
[4] = test system: NCTC clone 929 cells; test: Cytotoxicity screening at 10 µM (MTT); type: cell-based, Mus musculus; conditions: 48 h
[5] = test system: MRC-5 cells; test: Cytotoxicity screening at 10 µM (MTT); type: cell-based, Human; conditions: 48 h
[6] = test system: HeLa cells; test: Cytotoxicity screening at 10 µM (MTT); type: cell-based, Human; conditions: 48 h
[7] = test system: Human parainfluenza virus type 3 (HPIV-3); test: Antiviral activity assay (0.1–1000 µM), IC50; type: cell-based; conditions: Table S4, range 0.1-1000 µM, HPIV-3; read-out: IC50 (M) HPIV-3
Method: (§1) Antiviral properties of compounds 1e–1g, 1e[PF6], 8a–8d, and 9a were assessed against five viruses: Human herpesvirus 1 (HSV-1, VR-539), Human parainfluenza virus type 3 (HPIV-3, VR-93), Human adenovirus 5 (AdV5, VR-5), Human herpesvirus 5 (HCMV, VR-977), and Encephalomyocarditis virus (EMCV, VR-1479). Viruses were purchased from the American Type Culture Collection (ATCC, Manassas, VA, USA).
(§2) All tested compounds were dissolved in DMSO (dimethyl sulfoxide, Sigma-Aldrich, Darmstadt, Germany) and then suspended in Minimum Essential Medium (MEM; Sigma-Aldrich, Darmstadt, Germany) supplemented with 2% heat-inactivated fetal bovine serum (FBS; Sigma-Aldrich, Darmstadt, Germany), 2 mM L-glutamine (Sigma-Aldrich, Darmstadt, Germany), and 100 units/mL penicillin G with […] streptomycin (Sigma-Aldrich, Darmstadt, Germany).
Investigated cells were propagated in Minimum Essential Medium (MEM; Sigma-Aldrich, Darmstadt, Germany) supplemented with 10% heat-inactivated fetal bovine serum (FBS; Sigma-Aldrich, Darmstadt, Germany) and 100 units/mL penicillin G with […] streptomycin (Sigma-Aldrich, Darmstadt, Germany). After reaching 80–90% confluency, cells were harvested with trypsin (Life Technologies, Warsaw, Poland) and seeded into 96-well microplates at 2 × 10^5 cells/mL after overnight incubation of cells at 37 °C in a humidified atmosphere containing 5% CO2.
The culture medium was removed from confluent cells grown in 96-well microplates, and the cells were inoculated with virus solutions in MEM supplemented with 2% FBS and antibiotics (HSV-1 MOI 0.005, 1000 virions/mL; HPIV-3 MOI 0.01, 2000 virions/mL; AdV5 MOI 0.005, 1000 virions/mL; EMCV 0.005, 1000 virions/mL; HCMV 20 PFU/well (plaque-forming units per well). After a 1-h (HSV-1, HPIV-3, AdV5, and EMCV) or 2-h adsorption period (HCMV), residual viral particles were removed, and infected cells were further incubated with MEM supplemented with 2% FBS containing compound concentrations in the range from 0.1 to 1000 µM [38]. All experiments were carried out in triplicate. The cell monolayers were incubated with the investigated compounds at 37 °C in a humidified atmosphere containing 5% CO2 until a cytopathic effect (CPE) was visible. Viral infection was evaluated by the MTT assay (as described previously) or plaque reduction assay. HCMV plaques were counted under an inverted microscope, Olympus IX73 (Olympus, Tokyo, Japan). Antiviral activity was expressed as the concentration required to reduce the number of viral plaques to 50% of the control (virus-infected but untreated).

[8] = test system: Encephalomyocarditis virus (EMCV); test: Antiviral screening at 10 µM; type: cell-based; conditions: EMCV-infected cells
Method: as §1, with “1a, 1c, 1a[PF6], 1c[PF6], 9b[PF6], 9c[PF6], 10a–10d, 2a,” for “1e–1g, 1e[PF6], 8a–8d,”, “2b” for “9a”
as §2
(§3) Vero, LLC-MK2, NCTC clone 929, MRC-5, and HeLa cells were propagated in Minimum Essential Medium (MEM; Sigma-Aldrich, Darmstadt, Germany) supplemented with 10% heat-inactivated fetal bovine serum (FBS; Sigma-Aldrich, Darmstadt, Germany) and 100 units/mL penicillin G with […] streptomycin (Sigma-Aldrich, Darmstadt, Germany). Upon reaching 80–90% confluency, cells were harvested with 0.25% trypsin in 1 mM EDTA (Life Technologies, Warsaw, Poland) and seeded onto 96-well microplates at 2 × 10^5 cells/mL. After overnight incubation of cells at 37 °C in a humidified atmosphere containing 5% CO2, the culture medium was removed, and cells were inoculated with the respective virus solution in MEM supplemented with 2% FBS and antibiotics (HSV-1 MOI 0.005, 1000 virions/mL; HPIV-3 MOI 0.01, 2000 virions/mL; AdV5 MOI 0.005, 1000 virions/mL, EMCV MOI 0.005, 1000 virions/mL, HCMV 20 PFU (plaque forming units) per well). After a 1-h (HSV-1, HPIV-3, AdV5, and EMCV) or 2-h adsorption period (HCMV), the residual virus was removed, and the infected cells were further incubated with a 100 μL freshly prepared solution of tested compounds diluted with a maintenance medium supplemented with 2% FBS to obtain compound concentrations of 10 µM. The final concentration of DMSO in the medium was 0.1%. All experiments were carried out in triplicate. The cells monolayers were incubated with the compounds at 37 °C in a humidified atmosphere containing 5% CO2 until the typical cytopathic effect (CPE) was visible. Viral infection was evaluated by the MTT assay or plaque reduction assay (HCMV). After incubation with drugs, the cells were treated with 3-(4,5-dimethylthiazol-2-yl)-2,5-diphenyltetrazolium bromide dye solution (MTT, Sigma-Aldrich, Darmstadt, Germany) (25 μL, 5 mg/mL) for 2 h and lysed with solvent solution (100 μL) containing: DMF (Sigma-Aldrich, Darmstadt, Germany) (45 mL), SDS (Sigma-Aldrich, Darmstadt, Germany) (13.5 g), and distilled water (55 mL). After overnight incubation at 37 °C, the optical density at 550 nm and a reference wavelength of 670 nm were measured on a microplate spectrophotometer, Varioskan Lux (Thermo Fisher Scientific, Waltham, MA, USA). The number of HCMV plaques was counted under an inverted microscope Olympus IX73 (Olympus, Tokyo, Japan).

[9] = test system: Human adenovirus 5 (AdV5); test: Antiviral screening at 10 µM; type: cell-based; conditions: AdV5-infected cells
Method: as §1, with “1a, 1c, 1a[PF6], 1c[PF6], 9b[PF6], 9c[PF6], 10a–10d, 2a,” for “1e–1g, 1e[PF6], 8a–8d,”, “2b” for “9a”
as §2, §3

[10] = test system: Human herpesvirus 1 (HSV-1); test: Antiviral screening at 10 µM; type: cell-based; conditions: antiviral screening, HSV-1-infected cells
Method: as §1, with “1a, 1c, 1a[PF6], 1c[PF6], 9b[PF6], 9c[PF6], 10a–10d, 2a,” for “1e–1g, 1e[PF6], 8a–8d,”, “2b” for “9a”
as §2, §3

[11] = test system: Human parainfluenza virus type 3 (HPIV-3); test: Antiviral screening at 10 µM; type: cell-based; conditions: antiviral screening, HPIV-3-infected cells
Method: as §1, with “1a, 1c, 1a[PF6], 1c[PF6], 9b[PF6], 9c[PF6], 10a–10d, 2a,” for “1e–1g, 1e[PF6], 8a–8d,”, “2b” for “9a”
as §2, §3

[12] = LLC-MK2, MTT, 48 h, read-out: CC50 Normal Cell Lines LLC-MK2
[13] = Table S2, range 0.1-1000 µM, LLC-MK2, read-out: Cell line (CC50 M) LLC-MK2

## Cc1c(C)[n+](Cc2ccccc2)cn1Cc1ccccc1 [1a[PF6]]
[1]; [12]
  CC50: < 80 µM
[1]; [13]
  CC50: 32.7 ± 6.81 µM
[2]
  Cell line (viability %) Vero: 89.0%
[3]
  Cell line (viability %) LLC-MK2: 90.3%
[4]
  Cell line (viability %) NCTC clone 929: 56.2%
[5]
  Cell line (viability %) MRC-5: 78.6%
[6]
  Cell line (viability %) HeLa: 23.4%
[7]
  IC50: > 3.27e-05 M
[8]
  Cell line (viability %) EMCV: 7.8%
[9]
  Cell line (viability %) AdV5: 15.3%
[10]
  Cell line (viability %) HSV-1: 17.5%
[11]
  Cell line (viability %) HPIV-3: 62.4%

## COc1cccc(Cn2c[n+](Cc3ccccc3)c(C)c2C)c1 [1c[PF6]]
[1]; [12]
  CC50: < 80 µM
[1]; [13]
  CC50: 75.3 ± 5.51 µM
[2]
  Cell line (viability %) Vero: 91.3%
[3]
  Cell line (viability %) LLC-MK2: 55.6%
[4]
  Cell line (viability %) NCTC clone 929: 8.5%
[5]
  Cell line (viability %) MRC-5: 76.9%
[6]
  Cell line (viability %) HeLa: 11.4%
[7]
  IC50: > 7.53e-05 M
[8]
  Cell line (viability %) EMCV: 7.9%
[9]
  Cell line (viability %) AdV5: 17.1%
[10]
  Cell line (viability %) HSV-1: 23.3%
[11]
  Cell line (viability %) HPIV-3: 91.1%
